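Values below derive from 48-hour exposures of cells grown in 96-well plates, with endpoints linearly interpolated between the two concentrations bracketing the appropriate inhibition level. Here, GI50 denotes the concentration required for 50% inhibition of growth. The concentration for full growth arrest is given as TGI.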

The subject of the first experiment is SK-MEL-2 melanoma. Description: NCI anticancer screen, dose series, 48 h.
For `O=C1C(Cl)N(c2ccccc2)C1c1c[nH]c2ccccc12` (configuration not stated), the TGI is > 100 µM.

Regarding `Cc1nc2nnc(C)n2c2c1C(=O)Nc1ccccc1N2`, the TGI is > 100 µM.

For the compound `O=C(OCc1ccccc1)OOC(=O)OCc1ccccc1`, the TGI is > 100 µM.

As for `CN1CCN(C(=S)N(C)C(=O)c2ccc(Cl)cc2)CC1`, the TGI was > 100 µM.

Turning to `C(=Nc1ccc(-c2nc3ccccc3s2)cc1)c1ccco1`, the TGI was > 100 µM.

Regarding `Cc1cccc(N(CCC#N)S(=O)(=O)c2ccccc2)c1`, the TGI was > 100 µM.

Consider `Cc1cc2cccc(Cl)c2nc1C(=O)c1ccccc1`, for which the TGI was > 100 µM.

As for `COc1cc([C@@H]2c3cc4c(cc3C[C@H]3COC(=O)[C@@H]32)OCO4)cc(OC)c1OC`, the TGI was > 2.32 µM.

With `O=C1/C(=C/c2ccc(F)cc2)CNC/C1=C\c1ccc(F)cc1`, the TGI was found to be 29 µM.

Compound `CCOc1ccc(N=C/C=C(\Cl)c2ccc3ccccc3c2)cc1` had a TGI of 42.7 µM.

On to `O=C(CCc1ccc(O)cc1)c1c(O)cc(O)cc1OC1OC(CO)C(O)C(O)C1O` (configuration not stated), for which the TGI is > 100 µM.

With `CC(C)=CC1C(C(=O)O)C1(C)C` (configuration not stated), the TGI is > 750 µM.

For the compound `CCOC(=O)C1CC(O)C(=O)N1C` (configuration not stated), the TGI is > 100 µM.

For `COc1cccc(C2c3cc4c(cc3OC(N3CCCC3)C2C)OCO4)c1OC` (configuration not stated), the TGI is 17.1 µM.

Turning to `c1ccc(N=c2snc(-c3ccccc3)s2)cc1`, the TGI was > 100 µM.

With `CCOC(=O)c1c(N)n(-c2ccccc2)c(=S)n(-c2ccccc2)c1=O`, the TGI is > 100 µM.

In the case of `CC(=O)CC(=O)c1cc2c(=O)oc(C)cc2oc1=O`, the TGI was > 37.5 µM.

For `OCc1ccccc1C1CSCSC1`, the TGI is > 100 µM.

The next experiment has as its system UACC-257 melanoma. Description: NCI anticancer screen, dose series, 48 h.
Regarding `C=CCCCC12CCCc3cccc(c31)NC2=O` (configuration not stated), the TGI came to 50.4 µM.

With `Cc1oc2nc(N(C)C)n3nnnc3c2c1C`, the TGI is > 100 µM.

Turning to `C[C@@H]1C[C@H](O)[C@]2(O)O[C@@H]3C[C@@]4(C=O)[C@@H](CC=C5[C@@H]4CC[C@]4(C)[C@@H](C6=CC(=O)OC6)CC[C@]54O)C[C@H]3O[C@@H]2O1`, the TGI turned out to be 0.372 µM.

`C[C@]12CC/C(=N\O)C=C1CC[C@@H]1[C@@H]2CC[C@]2(C)C(=N/O)/C(=C/c3cccnc3)C[C@@H]12`: the TGI was 57.2 µM.

As to `O=C1C(Cl)N(c2ccccc2)C1c1c[nH]c2ccccc12` (configuration not stated), the TGI is > 100 µM.

For the compound `Cc1nc2nnc(C)n2c2c1C(=O)Nc1ccccc1N2`, the TGI was > 100 µM.

Turning to `O=C(OCc1ccccc1)OOC(=O)OCc1ccccc1`, the TGI is > 100 µM.

As for `O=C1CC(c2ccc([N+](=O)[O-])cc2)C2(C(=O)NC(=S)NC2=O)C(c2ccc([N+](=O)[O-])cc2)C1` (configuration not stated), the TGI came out at 40.9 µM.

For the compound `CN1CCN(C(=S)N(C)C(=O)c2ccc(Cl)cc2)CC1`, the TGI was > 100 µM.

As for `C(=Nc1ccc(-c2nc3ccccc3s2)cc1)c1ccco1`, the TGI was > 100 µM.

With `Cc1cccc(N(CCC#N)S(=O)(=O)c2ccccc2)c1`, the TGI is > 100 µM.

For `Cc1cc2cccc(Cl)c2nc1C(=O)c1ccccc1`, the TGI was 66.9 µM.

On to `COc1cc([C@@H]2c3cc4c(cc3C[C@H]3COC(=O)[C@@H]32)OCO4)cc(OC)c1OC`, for which the TGI was > 5 µM.

Take `COc1cccc(-c2nc(-c3cnccn3)n(Cc3ccccc3)n2)c1`: the TGI was > 100 µM.

Turning to `CC(=O)Nc1ccc(Cl)c(Cl)c1`, the TGI was > 100 µM.

With `O=C1/C(=C/c2ccc(F)cc2)CNC/C1=C\c1ccc(F)cc1`, the TGI amounted to 28 µM.

Take `CCOc1ccc(N=C/C=C(\Cl)c2ccc3ccccc3c2)cc1`: the TGI worked out at 30.8 µM.

`O=C(CCc1ccc(O)cc1)c1c(O)cc(O)cc1OC1OC(CO)C(O)C(O)C1O` (configuration not stated): the TGI is > 100 µM.

For `CC(C)=CC1C(C(=O)O)C1(C)C` (configuration not stated), the TGI is > 750 µM.

Turning to `CCOC(=O)C1CC(O)C(=O)N1C` (configuration not stated), the TGI was > 100 µM.

In the case of `c1ccc(N=c2snc(-c3ccccc3)s2)cc1`, the TGI is > 100 µM.

In the case of `COc1cc2c(cc1OC)C(=O)/C(=C/c1cc(C)c(O)c(C)c1)C2`, the TGI was > 100 µM.

As for `CCOC(=O)c1c(N)n(-c2ccccc2)c(=S)n(-c2ccccc2)c1=O`, the TGI is > 100 µM.

For the compound `CC(=O)CC(=O)c1cc2c(=O)oc(C)cc2oc1=O`, the TGI was > 37.5 µM.

`OCc1ccccc1C1CSCSC1`: the TGI was > 100 µM.

The next experiment has as its system MDA-MB-231 breast. As to the kind of experiment: NCI anticancer screen, dose series, 48 h.
For the compound `Cc1oc2nc(N(C)C)n3nnnc3c2c1C`, the TGI was > 100 µM.

Compound `C[C@@H]1C[C@H](O)[C@]2(O)O[C@@H]3C[C@@]4(C=O)[C@@H](CC=C5[C@@H]4CC[C@]4(C)[C@@H](C6=CC(=O)OC6)CC[C@]54O)C[C@H]3O[C@@H]2O1` yielded a TGI of 2.65 µM.

In the case of `C[C@]12CC/C(=N\O)C=C1CC[C@@H]1[C@@H]2CC[C@]2(C)C(=N/O)/C(=C/c3cccnc3)C[C@@H]12`, the TGI is 56.2 µM.

Compound `O=C1CC(c2ccc([N+](=O)[O-])cc2)C2(C(=O)NC(=S)NC2=O)C(c2ccc([N+](=O)[O-])cc2)C1` (configuration not stated) registered a TGI of 37.3 µM.

`CN1CCN(C(=S)N(C)C(=O)c2ccc(Cl)cc2)CC1`: the TGI was > 100 µM.

Regarding `Cc1cccc(N(CCC#N)S(=O)(=O)c2ccccc2)c1`, the TGI is > 100 µM.

Take `COc1cccc(-c2nc(-c3cnccn3)n(Cc3ccccc3)n2)c1`: the TGI is > 100 µM.

`O=C1/C(=C/c2ccc(F)cc2)CNC/C1=C\c1ccc(F)cc1`: the TGI stood at 13.5 µM.

`CCOc1ccc(N=C/C=C(\Cl)c2ccc3ccccc3c2)cc1` yielded a TGI of 30.9 µM.

For the compound `CCOC(=O)C1CC(O)C(=O)N1C` (configuration not stated), the TGI was > 100 µM.

On to `COc1cc2c(cc1OC)C(=O)/C(=C/c1cc(C)c(O)c(C)c1)C2`, for which the TGI was > 100 µM.

Regarding `CCOC(=O)c1c(N)n(-c2ccccc2)c(=S)n(-c2ccccc2)c1=O`, the TGI was > 100 µM.

The subject of another experiment is NCI/ADR-RES ovarian. Description: NCI anticancer screen, dose series, 48 h.
As to `Cc1oc2nc(N(C)C)n3nnnc3c2c1C`, the TGI was > 100 µM.

With `C[C@@H]1C[C@H](O)[C@]2(O)O[C@@H]3C[C@@]4(C=O)[C@@H](CC=C5[C@@H]4CC[C@]4(C)[C@@H](C6=CC(=O)OC6)CC[C@]54O)C[C@H]3O[C@@H]2O1`, the TGI came to 0.215 µM.

For the compound `C[C@]12CC/C(=N\O)C=C1CC[C@@H]1[C@@H]2CC[C@]2(C)C(=N/O)/C(=C/c3cccnc3)C[C@@H]12`, the TGI is > 100 µM.

For the compound `O=C1CC(c2ccc([N+](=O)[O-])cc2)C2(C(=O)NC(=S)NC2=O)C(c2ccc([N+](=O)[O-])cc2)C1` (configuration not stated), the TGI was > 100 µM.

As to `C(=Nc1ccc(-c2nc3ccccc3s2)cc1)c1ccco1`, the TGI was > 100 µM.

`Cc1cccc(N(CCC#N)S(=O)(=O)c2ccccc2)c1`: the TGI is > 100 µM.

As to `COc1cc([C@@H]2c3cc4c(cc3C[C@H]3COC(=O)[C@@H]32)OCO4)cc(OC)c1OC`, the GI50 is 9.17 nM and the TGI was found to be 0.202 µM.

The compound `CCOc1ccc(N=C/C=C(\Cl)c2ccc3ccccc3c2)cc1` had a TGI of 31.8 µM.

For the compound `O=C(CCc1ccc(O)cc1)c1c(O)cc(O)cc1OC1OC(CO)C(O)C(O)C1O` (configuration not stated), the TGI was > 100 µM.

For `CC(C)=CC1C(C(=O)O)C1(C)C` (configuration not stated), the TGI was > 750 µM.

Take `COc1cccc(C2c3cc4c(cc3OC(N3CCCC3)C2C)OCO4)c1OC` (configuration not stated): the TGI amounted to 15 µM.

Source of the values: PubChem BioAssay (NCI).
